Assay results taken from US10633348B2, “Methods to treat lymphoplasmacytic lymphoma” (Dana-Farber Cancer Institute, Inc., priority 2013, dated 2020).

How the values were obtained:
Assay type in all cases: cell-based
ZAK = system: ZAK
Abl = assay: KiNativ kinase profiling in A375 cells
LYN = system: LYN
OCI-Ly19 = assay: CellTiter-Glo cell viability assay; conditions: Homo sapiens, OCI-LY19, 72 h
Method: (§1) CellTiter-Glo® Luminescent cell viability assay (Promega) was used to assess cell survival following treatment with the compounds described. Cells were seeded into 384 well plates with the EL406 Combination Washer Dispenser (BioTek Instruments, Inc.) and the compounds were injected into the cells culture media with the JANUS Automated Workstation (PerkinElmer Inc.). Cells were treated with a series diluted inhibitors (20˜0.04 μM) for 72 hours at 37° C. Luminescent measurement is performed using the 2104 Envision® Multilabel Reader (PerkinElmer Inc.).

MWCL-1 = assay: CellTiter-Glo cell viability assay; conditions: 72 h
Method: as §1

BCWM.1 = assay: CellTiter-Glo cell viability assay; conditions: BCWM1, 72 h
Method: as §1

Ramos = assay: CellTiter-Glo cell viability assay; conditions: Homo sapiens, 72 h
Method: as §1

FYN = assay: KiNativ kinase profiling in A375 cells
MARK2, MARK3 = assay: KiNativ kinase profiling in A375 cells; conditions: Lys2, SEQ ID NO 92, 1.0 μM
WEE1 = system: WEE1
ERK2 = system: ERK2
PKCa, PKCb = assay: KiNativ kinase profiling in A375 cells; conditions: Lys2, SEQ ID NO 153, 1.0 μM
MLK4 = system: MLK4
ZC2/TNIK = system: ZC2/TNIK
TLK1 = system: TLK1
[1] = system: RSK1 domain1, RSK2 domain1, RSK3 domain1; assay: KiNativ kinase profiling in A375 cells; conditions: Lys2, SEQ ID NO 165, 1.0 μM
NEK3 = system: NEK3
MYO3A, MYO3B = assay: KiNativ kinase profiling in A375 cells; conditions: Lys2, SEQ ID NO 115, 1.0 μM
JAK3 domain2 = system: JAK3 domain2
MAP2K1, MAP2K2 = assay: KiNativ kinase profiling in A375 cells; conditions: Lys2, SEQ ID NO 79, 1.0 μM
NEK2 = system: NEK2
PKD2 = system: PKD2
PIK3CG = system: PIK3CG
STLK5 = system: STLK5
PIP4K2C = system: PIP4K2C
MER, TYRO3 = assay: KiNativ kinase profiling in A375 cells; conditions: Activation Loop, SEQ ID NO 102, 1.0 μM
MPSK1 = system: MPSK1
IRE1 = system: IRE1
MLK3 = system: MLK3
TAK1 = system: TAK1
NEK7 = system: NEK7
LCK = system: LCK
RSK1 domain2 = system: RSK1 domain2
CDC2 = system: CDC2
PDK1 = system: PDK1
CSK = system: CSK
IRAK4 = system: IRAK4
ULK1 = system: ULK1
LKB1 = system: LKB1
CDK2 = system: CDK2
MAP2K4 = system: MAP2K4
CDK5 = system: CDK5
SRC = system: SRC
FER = system: FER
p38b = system: p38b
IKKe = system: IKKe

SMILES: CCN1CCN(Cc2ccc(NC(=O)c3ccc(C)c(Oc4ccnc(Nc5cnn(C)c5)n4)c3)cc2C(F)(F)F)CC1 [(A-14), N-(4-((4-ethylpiperazin-1-yl)methyl)-3-(trifluoromethyl)phenyl)-4-methyl-3-((2-((1-methyl-1H-pyrazol-4-yl)amino)pyrimidin-4-yl)oxy)benzamide]
- KiNativ inhibition (ZAK): 75.8%
- ZAK inhibition (ZAK): 75.8%
- Abl inhibition (Abl; 1 μM, A375 cells): > 90%
- KiNativ inhibition (Abl; ABL, ARG, Activation Loop, SEQ ID NO 200, 1.0 μM): 98.4%
- KiNativ inhibition (LYN): 85.7%
- LYN inhibition (LYN): 85.7%
- EC50 (OCI-Ly19): 179 nM
- EC50 (MWCL-1): 128 nM
- EC50 (BCWM.1): 33 nM
- EC50 (Ramos): 2090 nM
- FYN inhibition (FYN; 1 μM, A375 cells): 88.2%
- KiNativ inhibition (FYN; FYN, SRC, YES, Activation Loop, SEQ ID NO 255, 1.0 μM): 88.2%

SMILES: CCN1CCN(Cc2ccc(NC(=O)c3ccc(C)c(Oc4cc(N)ncn4)c3)cc2C(F)(F)F)CC1 [(A-4), 3-((6-aminopyrimidin-4-yl)oxy)-N-(4-((4-ethylpiperazin-1-yl)methyl)-3-(trifluoromethyl)phenyl)-4-methylbenzamide]
- inhibition of kinase labeling (MARK2, MARK3): 4.6%
- inhibition of kinase labeling (ZAK): 75.7%
- inhibition of kinase labeling (WEE1): 23.2%
- inhibition of kinase labeling (ERK2): −3.8%
- inhibition of kinase labeling (PKCa, PKCb): 2.3%
- inhibition of kinase labeling (MLK4): −1.7%
- inhibition of kinase labeling (ZC2/TNIK): 23.9%
- inhibition of kinase labeling (TLK1): 4.9%
- inhibition of kinase labeling [1]: −17.7%
- inhibition of kinase labeling (NEK3): 13.1%
- inhibition of kinase labeling (MYO3A, MYO3B): −15.3%
- inhibition of kinase labeling (JAK3 domain2): 7.7%
- inhibition of kinase labeling (MAP2K1, MAP2K2): −16.3%
- inhibition of kinase labeling (NEK2): −22.7%
- inhibition of kinase labeling (Abl; ABL, ARG, Activation Loop, SEQ ID NO 1, 1.0 μM, A375 cells): 95.5%
- inhibition of kinase labeling (PKD2): −6.9%
- inhibition of kinase labeling (PIK3CG): −21.1%
- inhibition of kinase labeling (LYN): 87.8%
- inhibition of kinase labeling (STLK5): 5.0%
- inhibition of kinase labeling (PIP4K2C): 5.2%
- inhibition of kinase labeling (MER, TYRO3): 1.6%
- inhibition of kinase labeling (MPSK1): 16.1%
- inhibition of kinase labeling (IRE1): −2.2%
- inhibition of kinase labeling (MLK3): 20.7%
- inhibition of kinase labeling (TAK1): 32.0%
- inhibition of kinase labeling (NEK7): −7.2%
- inhibition of kinase labeling (LCK): 92.3%
- EC50 (OCI-Ly19): 9430 nM
- EC50 (MWCL-1): 1150 nM
- EC50 (BCWM.1): 3010 nM
- EC50 (Ramos): 21100 nM
- inhibition of kinase labeling (RSK1 domain2): −16.3%
- inhibition of kinase labeling (CDC2): −2.3%
- inhibition of kinase labeling (PDK1): 18.8%
- inhibition of kinase labeling (CSK): 15.3%
- inhibition of kinase labeling (IRAK4): 1.9%
- inhibition of kinase labeling (ULK1): −6.0%
- inhibition of kinase labeling (LKB1): −6.0%
- inhibition of kinase labeling (CDK2): −3.5%
- inhibition of kinase labeling (MAP2K4): −14.1%
- inhibition of kinase labeling (CDK5): −27.3%
- inhibition of kinase labeling (SRC): 76.1%
- inhibition of kinase labeling (FER): 91.4%
- inhibition of kinase labeling (p38b): 51.4%
- inhibition of kinase labeling (IKKe): −9.9%
- inhibition of kinase labeling (FYN; FYN, SRC, YES, Activation Loop, SEQ ID NO 50, 1.0 μM, A375 cells): 71.2%
